The source of these data is ChEMBL document CHEMBL3044770, “Studies on toxicity of antitubercular drugs namely isoniazid, rifampicin, and pyrazinamide in an in vitro model of HepG2 cell line” (Med Chem Res, 2011).

What all share (format): cell-based
For one series, the system named is HepG2. Nature of the series: Toxicity in Homo sapiens (human) HepG2 cells assessed as change in cell morphology at 1 mM after 24 hr by phase contrast microscopic analysis. Particulars: hepg2, 24 h, 1000 µM.
Series [1] can be described thus: Toxicity in Homo sapiens (human) HepG2 cells assessed as cell viability at 10 mM after 24 hr by MTT assay. Particulars: read-out: Activity. In general terms: Tetrazolium dyes change colour on reduction, which living cells bring about.
Series [2] can be described thus: Toxicity in pyrazinamide pretreated Homo sapiens (human) HepG2 cells assessed as cell viability at 200 mM after 24 hr by MTT assay. The settings on record: HepG2 cells pretreated with pyrazinamide, read-out: Activity.
Series [3] in a line: Toxicity in Homo sapiens (human) HepG2 cells assessed as cell viability at 1 mM after 24 hr by MTT assay. The settings on record: read-out: Activity.
Series [4] in a line: Toxicity in Homo sapiens (human) HepG2 cells assessed as cell viability at 50 mM after 24 hr by MTT assay. The settings on record: read-out: Activity.
Series [5] can be described thus: Toxicity in Homo sapiens (human) HepG2 cells assessed as cell viability at 5 mM after 24 hr by MTT assay. Particulars: read-out: Activity.
Series [6] is described as follows: Toxicity in isoniazid pretreated Homo sapiens (human) HepG2 cells assessed as cell viability at 200 mM after 24 hr by MTT assay. The settings on record: HepG2 cells pretreated with isoniazid, read-out: Activity.
Series [7] can be described thus: Toxicity in Homo sapiens (human) HepG2 cells assessed as cell viability at 25 uM after 24 hr by MTT assay. The settings on record: read-out: Activity.
A short description of series [8]: Toxicity in Homo sapiens (human) HepG2 cells assessed as cell viability at 100 uM after 24 hr by MTT assay. Particulars: read-out: Activity.
Series [9] is described as follows: Toxicity in Homo sapiens (human) HepG2 cells assessed as cell viability at 50 uM after 24 hr by MTT assay. Particulars: read-out: Activity.

Regarding `NNC(=O)c1ccncc1` [ISONIAZID], the Activity entry with HepG2 is given as “Non-toxic”. In addition, the viability at 24 h, 10000 µM in series [1] turned out to be 129%. In addition, the viability at 24 h, 200000 µM in series [2] was found to be 56.1%. For the same molecule, in [3], the viability at 24 h, 1000 µM was 125%. Further, the viability at 24 h, 50000 µM in series [4] stood at 91.3%. In addition, in series [5], the viability at 24 h, 5000 µM amounted to 99.7%.
As to `NC(=O)c1cnccn1` [PYRAZINAMIDE], the Activity entry in the series with HepG2 is recorded as “Non-toxic”. For the same molecule, the viability at 24 h, 10000 µM in series [1] worked out at 104%. For the same molecule, the viability at 24 h, 1000 µM in series [3] was determined as 87.7%. Also, in series [4], the viability at 24 h, 50000 µM is 102%. The viability at 24 h, 200000 µM in series [6] came out at 60.1%. In [5], the viability at 24 h, 5000 µM turned out to be 102%.
Regarding `CO[C@H]1/C=C/O[C@@]2(C)Oc3c(C)c(O)c4c(O)c(c(/C=N/N5CCN(C)CC5)c(O)c4c3C2=O)NC(=O)/C(C)=C\C=C\[C@H](C)[C@H](O)[C@@H](C)[C@@H](O)[C@@H](C)[C@H](OC(C)=O)[C@@H]1C` [RIFAMPIN], the viability at 24 h, 25 µM in series [7] came out at 115%. Further, the viability at 24 h, 100 µM in series [8] was determined as 192%. In addition, the viability at 24 h, 50 µM in [9] was 116%.
